Assay results: patent US8741871B2, “Trehalose compound, method for producing same, and pharmaceutical product containing the compound” (priority 2008, dated 2014)

Legend:
[1] = system: mouse intraperitoneal macrophages; experiment: Measurement of active oxygen released from mouse intraperitoneal macrophages (H2DCFDA fluorescence); format: cell-based; conditions: 50 μM test compound, one hour; FIG. 1
Procedure: 3 ml of 5% thioglycolate medium (Difco, BD, code. 225640, Lot. 6192372) was administered into the abdominal cavity of a mouse (ICR mouse (SPF), 5-week-old, male). Four days after the administration, the mouse was sacrificed with the use of diethyl ether. […] This operation was repeatedly carried out two times. […] Thereafter, the number of macrophages was counted with One Cell Counter (Wakenyaku Co., Ltd.). The obtained macrophages were diluted with an RPMI-1640 medium to have any given concentration. The thus obtained mouse intraperitoneal macrophages were used in the subsequent test.
0.7 g of BSA was weighed into a large test tube. […] Subsequently, protein was quantified using Nano Drop ND-1000, and it was then diluted with sterilized PBS (−) so as to result in a final concentration of 2%. […]
After the macrophages had been washed with HBSG-BSA, they were then suspended in approximately 5 mL of HBSG-BSA, and 100 of the obtained suspension was then dispensed into each well of a 96-well Collagen Well (TC-PLATE 96 WELL, STERILE WITH LID, IND PACKED). […] One hour later, the amount of active oxygen was measured using Genios fluorescence intensity measurement apparatus.
The above-mentioned H2DCFDA is a fluorescent probe, and its fluorescence intensity is increased in the presence of hydrogen peroxide (H2O2).

[2] = system: mouse intraperitoneal macrophages; experiment: Measurement of phagocytic ability of mouse intraperitoneal macrophages (fluorescent beads); format: cell-based; conditions: 50 μM test compound, 2 hours, FIG. 2
Procedure: Mouse intraperitoneal macrophages, a 40 mM test compound solution, and an RPMI1640 medium were prepared in the same manner as described above.
In the following experiment, Fluoresbrite (trademark) Carboxylate Microspheres (2.58% Solids-Latex) YG (Polysciences, Inc.) were used as fluorescent beads.
Macrophages were added to a TC-Plate (TC-PLATE 24 WELL, STERILE WITH LID, IND PACKED, greiner bio-one), so that they became 80% confluent. The macrophages were incubated at 37° C. for 2 hours. Thereafter, the supernatant was discarded, and the cells were then washed with 500 μl of RPMI 1640 medium two times. Each composition shown in Table 3 below was added to the TC-Plate, and it was then incubated at 37° C. for 2 hours. Thereafter, the supernatant was discarded, and the cells were then washed with 300 μl of sterilized PBS (−). In order to remove fluorescent beads that had not been incorporated into the cells, the aforementioned washing operation was repeatedly carried out two times. Macrophages were peeled off with 200 μl of sterilized PBS (−), and were then transferred into an Eppendorf tube. The macrophages were centrifuged at 1,500 rpm for 8 minutes. […]
Using FUJI FILM FLA-2000, the amount of fluorescent beads incorporated into the cells was measured [fluorescence intensity (Fluor 473 nm, Y520 Filter)]. For analysis, Image Reader V1.4J was used.

[3] = system: THP-1 cells; experiment: Release of cytokine (MIP-1β, TNF-α) from THP-1 cells (ELISA); format: cell-based, human; conditions: 100 μM test compound, 2 hours, FIG. 9; for release level of TNF-α from THP-1 cells compared with the negative control: negative control vehicle; for release level of MIP-1β from THP-1 cells compared with the positive control: positive controls control compound A and TDCM
[4] = system: THP-1 cells; experiment: Analysis of cytotoxicity to THP-1 cells using trypan blue; format: cell-based, human; conditions: treated for 2 hours and for 24 hours; FIG. 10
Procedure: The cultured THP-1 cells were transferred into a 50-ml centrifuge tube in a clean bench. The cells were then centrifuged at 1,000 rpm for 5 minutes at 20° C., and the supernatant was then removed. […] 10 μl of this cell suspension was added to a sterile Eppendorf tube, to which 990 μl of serum-free RPMI 1640 medium had previously been added, so that the solution was 100-fold diluted. The number of cells in 10 μl of the 100-fold diluted solution was counted with a blood cell counter, and the cell suspension was diluted with serum-free RPMI 1640 medium to a cell density of 1×10^7 cells/ml.
A test compound (Example 9)/DMSO solution, or DMSO was added to 100 μl of RPMI medium to a concentration of 200 μM. Thereafter, ultrasonic wave was applied to the mixture for 5 seconds. It is to be noted that a test compound, 6-O-(2-decyldecanoyl)-α-glucose (hereinafter referred to as a “control compound B”), and TDCM were used to prepare positive controls in the same manner as described above. In addition, a negative control was prepared by adding no test compounds (vehicle). […] Subsequently, 20 μl of 0.3% trypan blue/PBS (−) was added to the reaction solution so as to suspend the reaction solution therein, and thereafter, the survival rate of the cells was immediately analyzed using a cell number measuring apparatus (CYRORECON).

[5] = system: Salmonella typhmurium TA98; experiment: Mutagenicity test (Ames test); conditions: TA98, in the presence or absence of S9 mix; FIG. 11
[6] = system: IL-6, TNF-α, IFN-γ in mouse plasma; experiment: Measurement of IL-6, TNF-α and IFN-γ released into peripheral blood of test compound administered mouse; conditions: 100 μg/mouse intravenous, two hours later; for IL-6-releasing activity (mouse plasma IL-6 concentration) compared with TDCM: FIG. 6; for IFN-γ-releasing activity (mouse plasma IFN-γ concentration) compared with TDCM: FIG. 7

SMILES	action to promote the generation of active oxygen from mouse intraperitoneal macrophages, compared with TDCM [1]	action to activate the phagocytosis of mouse intraperitoneal macrophages, compared with TDCM [2]	release level of TNF-α from THP-1 cells compared with the negative control [3]	release level of MIP-1β from THP-1 cells compared with the positive control [3]	cytotoxicity to THP-1 cells (survival rate, trypan blue staining) [4]	mutagenicity (Ames test, number of His colonies) [5]	IL-6-releasing activity (mouse plasma IL-6 concentration) compared with TDCM [6]	IFN-γ-releasing activity (mouse plasma IFN-γ concentration) compared with TDCM [6]	plasma TNF-α concentration in mice, activity compared with TDCM ([6]; FIG. 8)
CCCCCCCCCCC(CCCCCCCCCC)C(=O)OCC1O[C@H](O[C@H]2OC(COC(=O)C(CCCCCCCCCC)CCCCCCCCCC)[C@@H](O)C(O)C2O)C(O)C(O)[C@@H]1O (stereo partly drawn) [Example 1, 6,6′-bis-O-(2-decyldodecanoyl)-α,α′-trehalose]	two times higher than the activity of TDCM	approximately two times higher than the activity of TDCM	almost equivalent to	higher than	significant results could be obtained	significant results could be obtained	approximately 1.2 times	approximately 1.5 times	the same level as that of TDCM
CCCCCCCCCC(CCCCCCCCC)CC(=O)OCC1O[C@H](O[C@H]2OC(COC(=O)CC(CCCCCCCCC)CCCCCCCCC)[C@@H](O)C(O)C2O)C(O)C(O)[C@@H]1O (stereo partly drawn) [Example 9, 6,6′-bis-O-(3-nonyldodecanoyl)-α,α′-trehalose]	two times higher than the activity of TDCM	approximately two times higher than the activity of TDCM	almost equivalent to	8 to 10 times	cytotoxicity was not observed	did not exhibit mutagenicity	approximately 1.5 times	approximately 1.5 times	–
